Source: patent US20070191406A1, “Heterocyclic antiviral compounds” (Roche Palo Alto LLC, priority 2006, published 2007)
Structures can show the parent of a compound that is named as a salt.

What follows are compounds tested against T1, CCR5 (Homo sapiens, UniProt P51681) (assay: CCR5-Mediated CCF Assay). Conditions: Hela-R5 cells (gp160 from R5-tropic virus, HIV-1 Tat) co-cultured 24 hrs with CEM-NKr-CCR5-Luc cells; luciferase readout.
T1 construct: host or cells: CEM-NKr-CCR5-Luc
Format: cell-based
Description: CCF assay was performed as described before (C. Ji, J. Zhang, N. Cammack and S. Sankuratri, J. Biomol. Screen. 2006 11(6):652-663). Hela-R5 cells (express gp160 from R5-tropic virus and HIV-1 Tat) were plated in 384 well white culture plates (BD Bioscience, Palo Alto, Calif.) at 7.5×10^3 cells per well in phenol red-free Dulbecco's Modified Eagle Medium (DMEM) supplemented with 10% FBS, 1× Pen-Strep, 300 μg/mL G418, 100 μg/mL hygromycin, and 1 μg/mL Doxycycline (Dox) (BD Bioscience, Palo Alto, Calif.), using Multimek (Beckman, Fullerton, Calif.) and incubated at 37° C. overnight to induce the expression of gp160. Ten μL diluted compounds in medium containing 5% DMSO were added to the cells, followed by the addition of CEM-NKr-CCR5-Luc (obtained from NIH AIDS Research & Reference Reagents Program) that expresses CD4 and CCR5 and carries a HIV-2 long terminal repeat (LTR)-driven luciferase reporter gene at 1.5×10^4 cells/15 μL/well and incubated for 24 hrs. At the end of co-culture, 15 μL of Steady-Glo luciferase substrate was added into each well, and the cultures were sealed and gently shaken for 45 min. The luciferase activity were measured for 10 sec per well as luminescence by using 16-channel TopCount NXT (PerkinElmer, Shelton, Conn.) with 10 min dark adaptation and the readout is count per second (CPS). For the drug interaction experiments, small molecule compounds or antibodies were serially diluted in serum-free and phenol red-free RPMI containing 5% DMSO (CalBiochem, La Jolla, Calif.) and 1× Pen-Strep. Five μL each of the two diluted compound or mAb to be tested for drug-drug interactions were added to the Hela-R5 cells right before the addition of target cells.

T1 sequence (P51681 whole entry): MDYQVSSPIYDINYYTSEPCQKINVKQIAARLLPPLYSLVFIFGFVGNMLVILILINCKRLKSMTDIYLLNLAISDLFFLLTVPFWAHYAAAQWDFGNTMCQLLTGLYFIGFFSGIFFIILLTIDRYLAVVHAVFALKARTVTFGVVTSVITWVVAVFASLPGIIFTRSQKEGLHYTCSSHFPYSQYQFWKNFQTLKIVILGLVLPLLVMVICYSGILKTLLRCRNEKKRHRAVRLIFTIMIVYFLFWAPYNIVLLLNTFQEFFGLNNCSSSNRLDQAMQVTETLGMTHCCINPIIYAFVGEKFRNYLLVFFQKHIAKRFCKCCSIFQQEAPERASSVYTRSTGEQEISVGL

Row | SMILES | IC50
1 | Cc1ccc(N(CCCN2CC3CN(C(=O)c4c(C)cccc4C)CC3C2)C(=O)[C@@H]2CC[C@H](C(=O)O)C2)cc1Cl (stereo partly drawn) [I-4, (1S,3R)-3-((3-Chloro-4-methyl-phenyl)-{3-[5-(2,6-dimethyl-benzoyl)-hexahydro-pyrrolo[3,4-c]pyrrol-2-yl]-propyl}-carbamoyl)-cyclopentanecarboxylic acid, trifluoro-acetate salt] | 9.8 nM
2 | Cc1ccnc(C)c1C(=O)N1CC2CN(CC[C@H](NC(=O)C3CCC(=O)C3)c3cccc(F)c3)CC2C1 (stereo partly drawn) [I-23, 3-Oxo-cyclopentanecarboxylic acid [(S)-3-[5-(2,4-dimethyl-pyridine-3-carbonyl)-hexahydro-pyrrolo[3,4-c]pyrrol-2-yl]-1-(3-fluoro-phenyl)-propyl]-amide] | 7.4 nM
3 | Cc1ncnc(C)c1C(=O)N1CC2CN(CC[C@H](NC(=O)C3CCCC(=O)C3)c3cccc(F)c3)CC2C1 (stereo partly drawn) [I-24, 3-Oxo-cyclohexanecarboxylic acid [(S)-3-[5-(4,6-dimethyl-pyrimidine-5-carbonyl)-hexahydro-pyrrolo[3,4-c]pyrrol-2-yl]-1-(3-fluoro-phenyl)-propyl]-amide] | 6.5 nM
4 | COC(=O)[C@H]1CC[C@@H](C(=O)N(CCCN2C[C@@H]3CN(C(=O)c4c(C)ncnc4C)C[C@@H]3C2)c2ccc(C)c(Cl)c2)CC1 [I-31] | 3.5 nM
5 | Cc1cccc(C)c1C(=O)N1CC2CN(CC[C@H](NC(=O)C3CCCC3C(=O)O)c3ccccc3)CC2C1 (stereo partly drawn) [I-33, 2-{(S)-3-[5-(2,6-Dimethyl-benzoyl)-hexahydro-pyrrolo[3,4-c]pyrrol-2-yl]-1-phenyl-propylcarbamoyl}-cyclopentanecarboxylic acid] | 1.7 nM
